| melting point [°C] | SMILES |
| --- | --- |
| 103 to 104 | CSc1cc(C)nc(SC)c1NC(=O)CN1CCN(CCSc2nc3cc(C(F)(F)F)ccc3o2)CC1 [Example 4, 2-[4-[2-(5-trifluoromethylbenzoxazol-2-ylthio)ethyl]piperazin-1-yl]-N-[2,4-bis(methylthio)-6-methylpyridin-3-yl]acetamide] |
| 191 to 192 | Cc1cc(OCC(F)(F)F)c(NC(=O)CN2CCN(CCSc3nc4cc(F)c(F)cc4[nH]3)CC2)c(OCC(F)(F)F)n1 [Example 5, 2-[4-[2-(5,6-difluorobenzimidazol-2-ylthio)ethyl]piperazin-1-yl]-N-[2,4-bis(2,2,2-trifluoroethoxy)-6-methylpyridin-3-yl]acetamide] |
| 107 to 108 | Cc1cc(C(F)(F)F)c(NC(=O)CN2CCN(CCSc3nc4ccccc4s3)CC2)c(C)n1 [Example 8, 2-[4-[2-(benzothiazol-2-ylthio)ethyl]piperazin-1-yl]-N-[2,6-dimethyl-4-trifluoromethyl-pyridin-3-yl]acetamide] |
| 141 to 142 | Cc1cc(OCC(F)(F)F)c(NC(=O)CN2CCN(CCSc3nc4ccccc4o3)CC2)c(OCC(F)(F)F)n1 [Example 7, 2-[4-[2-(benzoxazol-2-ylthio)ethyl]piperazin-1-yl]-N-[2,4-bis(2,2,2-trifluoroethoxy)-6-methylpyridin-3-yl]acetamide] |
